From ChEMBL document CHEMBL1130263 (J Med Chem, 1997) come the findings set out here.

Molecules are shown by their SMILES.

Experiment [1] has as its system Rattus norvegicus. The experiment can be described thus: Catalytic action on male Wistar rats after subcutaneous administration of 10 µmol/kg dose of compound.
A further experiment has as its target D(1A) dopamine receptor (Rattus norvegicus, UniProt P18901).
The target in another experiment is Histamine H1 receptor (Rattus norvegicus, UniProt P31390). The experiment can be described thus: Inhibitory binding of [3H]mepyramine to histamine H1 receptors in rat brain membranes. It counts as cell membranes.
Sequence of Histamine H1 receptor (P31390 whole entry): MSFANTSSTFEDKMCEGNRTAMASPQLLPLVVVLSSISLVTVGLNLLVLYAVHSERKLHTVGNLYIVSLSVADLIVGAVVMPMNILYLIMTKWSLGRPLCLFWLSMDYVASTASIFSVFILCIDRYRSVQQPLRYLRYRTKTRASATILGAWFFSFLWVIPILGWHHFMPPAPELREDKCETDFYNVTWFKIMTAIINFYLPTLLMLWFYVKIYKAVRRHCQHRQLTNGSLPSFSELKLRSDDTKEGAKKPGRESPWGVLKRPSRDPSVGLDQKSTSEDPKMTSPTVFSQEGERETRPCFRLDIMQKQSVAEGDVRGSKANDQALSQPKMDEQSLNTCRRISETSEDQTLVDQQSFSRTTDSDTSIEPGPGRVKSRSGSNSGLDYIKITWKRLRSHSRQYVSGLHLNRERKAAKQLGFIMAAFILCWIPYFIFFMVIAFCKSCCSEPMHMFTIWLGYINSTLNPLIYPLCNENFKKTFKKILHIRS
In experiment [2] the target is T1, Muscarinic acetylcholine receptor M1 (Homo sapiens, UniProt P11229).
T1 sequence (P11229 whole entry): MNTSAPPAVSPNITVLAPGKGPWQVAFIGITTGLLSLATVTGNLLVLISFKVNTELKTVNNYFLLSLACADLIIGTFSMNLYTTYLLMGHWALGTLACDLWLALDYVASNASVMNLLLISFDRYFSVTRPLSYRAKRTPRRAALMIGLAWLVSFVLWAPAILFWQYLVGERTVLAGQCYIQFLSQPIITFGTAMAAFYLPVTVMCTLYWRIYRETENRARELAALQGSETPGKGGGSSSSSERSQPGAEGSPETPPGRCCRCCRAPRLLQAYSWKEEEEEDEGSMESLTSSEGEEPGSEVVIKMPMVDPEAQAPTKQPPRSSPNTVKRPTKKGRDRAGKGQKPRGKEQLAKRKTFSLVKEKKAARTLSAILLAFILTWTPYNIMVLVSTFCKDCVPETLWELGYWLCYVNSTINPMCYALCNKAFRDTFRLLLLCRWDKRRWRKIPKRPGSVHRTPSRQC
The experiment can be described thus: Inhibitory binding of [3H]pirenzepine to human Muscarinic acetylcholine receptor M1 in membranes from CHO-K1 cells. The experiment is classed as cell-based.

Experiment [3] concerns Rattus norvegicus. The experiment can be described thus: Locomotor activity in male Wistar rats after a dose of 10 uM/kg, 30 min before 1 mg/kg of apomorphine administration. The experiment is classed as functional.
The test system of experiment [4] is Rattus norvegicus. The experiment is described as follows: Locomotor activity in male Wistar rats after a dose of 3 uM/kg, 30 min before 1 mg/kg of apomorphine administration. It counts as functional.
Experiment [5] has as its system Rattus norvegicus. The experiment can be described thus: Locomotor activity in male Wistar rats after a dose of 30 uM/kg, 30 min before 1 mg/kg of apomorphine administration. The experiment is classed as functional.
In experiment [6] the test system is Rattus norvegicus. The experiment is described as follows: Catalytic action on male Wistar rats after subcutaneous administration of 100 µmol/kg dose of compound.
Experiment [7] deals with Rattus norvegicus. The experiment is described as follows: Locomotor activity in male Wistar rats after a dose of 100 uM/kg, 30 min before 1 mg/kg of apomorphine administration. The experiment is classed as functional.
In experiment [8] the target is T2, Adrenergic receptor alpha-1 (Rattus norvegicus, UniProt P15823+P23944+P43140).
T2 sequence (P15823 whole entry): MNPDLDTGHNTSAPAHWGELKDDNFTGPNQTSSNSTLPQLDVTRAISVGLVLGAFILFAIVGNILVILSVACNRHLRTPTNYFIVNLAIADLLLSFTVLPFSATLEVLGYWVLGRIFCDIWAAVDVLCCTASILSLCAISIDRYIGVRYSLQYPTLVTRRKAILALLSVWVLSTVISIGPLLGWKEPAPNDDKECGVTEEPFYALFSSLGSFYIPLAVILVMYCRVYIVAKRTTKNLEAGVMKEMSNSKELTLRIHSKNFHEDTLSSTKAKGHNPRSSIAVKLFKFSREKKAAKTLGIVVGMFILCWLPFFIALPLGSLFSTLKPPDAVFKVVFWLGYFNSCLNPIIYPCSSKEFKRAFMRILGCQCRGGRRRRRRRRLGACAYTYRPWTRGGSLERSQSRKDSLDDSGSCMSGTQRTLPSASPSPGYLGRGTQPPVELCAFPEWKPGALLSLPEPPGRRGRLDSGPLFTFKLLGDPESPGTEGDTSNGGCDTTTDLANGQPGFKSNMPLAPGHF
T2 sequence (P23944 whole entry): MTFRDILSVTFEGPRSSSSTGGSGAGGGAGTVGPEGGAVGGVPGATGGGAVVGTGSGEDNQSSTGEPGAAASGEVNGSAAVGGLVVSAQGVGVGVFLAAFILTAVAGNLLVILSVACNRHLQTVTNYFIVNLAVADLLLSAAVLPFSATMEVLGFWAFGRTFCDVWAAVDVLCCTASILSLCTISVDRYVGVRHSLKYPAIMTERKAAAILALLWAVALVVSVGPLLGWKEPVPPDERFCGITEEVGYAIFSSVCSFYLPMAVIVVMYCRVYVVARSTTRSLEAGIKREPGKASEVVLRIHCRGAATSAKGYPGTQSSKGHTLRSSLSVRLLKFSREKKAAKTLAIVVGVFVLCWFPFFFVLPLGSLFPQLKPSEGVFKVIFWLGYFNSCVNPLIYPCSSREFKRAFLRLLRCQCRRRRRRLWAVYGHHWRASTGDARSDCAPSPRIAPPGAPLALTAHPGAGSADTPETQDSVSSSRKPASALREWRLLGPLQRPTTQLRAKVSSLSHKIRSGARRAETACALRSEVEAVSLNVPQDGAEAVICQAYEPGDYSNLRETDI
T2 sequence (P43140 whole entry): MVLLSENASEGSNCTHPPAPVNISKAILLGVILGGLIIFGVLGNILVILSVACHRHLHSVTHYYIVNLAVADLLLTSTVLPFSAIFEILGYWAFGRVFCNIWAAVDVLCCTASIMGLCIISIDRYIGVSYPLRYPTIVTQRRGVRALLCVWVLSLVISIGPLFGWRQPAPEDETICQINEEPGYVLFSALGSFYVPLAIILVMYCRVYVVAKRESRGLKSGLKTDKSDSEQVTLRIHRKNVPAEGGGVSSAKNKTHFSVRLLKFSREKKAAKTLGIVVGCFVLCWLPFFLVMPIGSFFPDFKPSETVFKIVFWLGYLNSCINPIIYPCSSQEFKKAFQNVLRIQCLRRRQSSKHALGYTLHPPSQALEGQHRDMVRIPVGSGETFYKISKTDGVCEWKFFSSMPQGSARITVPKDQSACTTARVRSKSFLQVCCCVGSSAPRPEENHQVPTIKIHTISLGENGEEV
The experiment is described as follows: Inhibition of [3H]prazosin binding to Alpha-1 adrenergic receptor in rat brain membranes.

The target in experiment [9] is T3, 5-hydroxytryptamine receptor 2C (Rattus norvegicus, UniProt P08909).
T3 sequence (P08909 whole entry): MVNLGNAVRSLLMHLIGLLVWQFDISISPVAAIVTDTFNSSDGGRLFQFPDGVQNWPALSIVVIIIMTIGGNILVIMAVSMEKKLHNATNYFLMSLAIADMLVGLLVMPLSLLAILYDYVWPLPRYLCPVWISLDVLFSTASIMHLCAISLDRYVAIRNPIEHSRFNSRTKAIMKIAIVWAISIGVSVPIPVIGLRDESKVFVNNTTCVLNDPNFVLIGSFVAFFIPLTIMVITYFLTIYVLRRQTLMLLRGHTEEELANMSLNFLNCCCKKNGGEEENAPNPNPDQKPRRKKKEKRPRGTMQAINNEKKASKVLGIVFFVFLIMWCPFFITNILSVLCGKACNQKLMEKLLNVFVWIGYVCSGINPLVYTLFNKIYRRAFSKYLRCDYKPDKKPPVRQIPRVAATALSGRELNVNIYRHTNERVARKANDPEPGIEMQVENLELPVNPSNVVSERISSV
Description: Inhibition of [3H]mesulergine binding to 5-hydroxytryptamine 2C receptor in rat brain membranes

In experiment [10] the target is 5-hydroxytryptamine receptor 2A (Rattus norvegicus, UniProt P14842). The experiment is described as follows: Inhibition of [3H]ketanserin binding to 5-hydroxytryptamine 2A receptor from rat brain.
Sequence of 5-hydroxytryptamine receptor 2A (P14842 whole entry): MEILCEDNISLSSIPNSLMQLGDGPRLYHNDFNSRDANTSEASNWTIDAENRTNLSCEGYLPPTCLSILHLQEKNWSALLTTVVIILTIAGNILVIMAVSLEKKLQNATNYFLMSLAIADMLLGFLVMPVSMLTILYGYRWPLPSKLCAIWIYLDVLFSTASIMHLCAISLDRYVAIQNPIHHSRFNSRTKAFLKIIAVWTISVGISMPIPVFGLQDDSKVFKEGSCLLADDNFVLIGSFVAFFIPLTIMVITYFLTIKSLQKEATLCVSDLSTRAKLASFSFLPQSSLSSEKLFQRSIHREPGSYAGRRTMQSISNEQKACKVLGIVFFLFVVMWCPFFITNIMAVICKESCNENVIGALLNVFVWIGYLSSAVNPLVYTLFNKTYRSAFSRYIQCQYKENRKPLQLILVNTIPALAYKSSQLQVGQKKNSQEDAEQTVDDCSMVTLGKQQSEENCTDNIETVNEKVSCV
Experiment [11] relates to Rattus norvegicus. The experiment is described as follows: Catalytic action on male Wistar rats after subcutaneous administration of 1.0 µmol/kg dose of compound.
For experiment [12], the system named is Rattus norvegicus. The experiment is described as follows: Catalytic action on male Wistar rats after subcutaneous administration of 30 µmol/kg dose of compound.
The test system of experiment [13] is Rattus norvegicus. The experiment can be described thus: Locomotor activity in male Wistar rats after a dose of 3.0 uM/kg, 30 min before 1 mg/kg of apomorphine administration. The experiment is classed as functional.
Experiment [14] relates to Rattus norvegicus. The experiment is described as follows: Locomotor activity in male Wistar rats after a dose of 1.0 uM/kg, 30 min before 1 mg/kg of apomorphine administration. The experiment is classed as functional.
The test system of experiment [15] is Rattus norvegicus. The experiment can be described thus: Catalytic action on male Wistar rats after subcutaneous administration of 3.0 µmol/kg dose of compound.
For experiment [16], the system named is Rattus norvegicus. The experiment is described as follows: Catalytic action on male Wistar rats after subcutaneous administration of 0.3 µmol/kg dose of compound.
The test system of experiment [17] is Rattus norvegicus. The experiment can be described thus: Locomotor activity in male Wistar rats after a dose of 0.3 uM/kg, 30 min before 1 mg/kg of apomorphine administration. It counts as functional.
The subject of experiment [18] is Rattus norvegicus. The experiment is described as follows: Locomotor activity in male Wistar rats after a dose of 0.003 uM/kg, 30 min before 1 mg/kg of apomorphine administration. It counts as functional.
Experiment [19] concerns Rattus norvegicus. The experiment can be described thus: Locomotor activity in male Wistar rats after a dose of 0.03 uM/kg, 30 min before 1 mg/kg of apomorphine administration. It counts as functional.
Experiment [20] has as its system Rattus norvegicus. The experiment is described as follows: Catalytic action on male Wistar rats after subcutaneous administration of 0.03 µmol/kg dose of compound.
In experiment [21] the test system is Rattus norvegicus. The experiment is described as follows: Catalytic action on male Wistar rats after subcutaneous administration of 0.003 µmol/kg dose of compound.

Sequence of D(1A) dopamine receptor (P18901 whole entry): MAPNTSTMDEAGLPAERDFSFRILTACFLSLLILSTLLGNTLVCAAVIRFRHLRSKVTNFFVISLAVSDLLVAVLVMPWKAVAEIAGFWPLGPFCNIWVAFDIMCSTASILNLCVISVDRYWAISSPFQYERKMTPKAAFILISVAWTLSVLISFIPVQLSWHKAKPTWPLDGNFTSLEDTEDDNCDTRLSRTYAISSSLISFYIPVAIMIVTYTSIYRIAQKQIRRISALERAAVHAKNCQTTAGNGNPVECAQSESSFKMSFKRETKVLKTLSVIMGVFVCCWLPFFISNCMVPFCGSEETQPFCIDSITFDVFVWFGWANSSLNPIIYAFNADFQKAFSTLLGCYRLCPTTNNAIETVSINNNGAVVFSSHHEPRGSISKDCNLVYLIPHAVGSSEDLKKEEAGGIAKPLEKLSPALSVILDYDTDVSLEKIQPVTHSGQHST
Description for D(1A) dopamine receptor: Inhibitory binding of [3H]SCH-23390 to Dopamine receptor D1 in membranes from rat corpus striatum

The IC50 is the concentration needed to halve the response being measured. A high value points to weaker potency in that assay. In the case of `CN1CCN(C2=Nc3ccccc3Nc3ccc(OS(=O)(=O)C(F)(F)F)cc32)CC1`, the Catalyptic action with Rattus norvegicus [1] and in the experiment on Rattus norvegicus [6] was 0 each time. Moreover, the IC50 on D(1A) dopamine receptor came out at 64 nM; at Histamine H1 receptor, 47 nM; in experiment [2], 1200 nM; in experiment [8] it was 12 nM; in experiment [9], 34 nM; in [10], 8 nM. Besides, the Locomotor activity in the experiment with Rattus norvegicus [3] was found to be 102; in the experiment with Rattus norvegicus [4], 87; in the experiment on Rattus norvegicus [5], 22; with Rattus norvegicus [7] it was 8.
As for `CN1CCN(C2=Nc3cc(OS(=O)(=O)C(F)(F)F)ccc3Nc3ccccc32)CC1`, the IC50 is 930 nM against D(1A) dopamine receptor; 720 nM at Histamine H1 receptor; 35 nM in experiment [2]; > 1000 nM in experiment [8]; 620 nM in [9]; 550 nM in experiment [10].
Take `CN1CCN(C2=Nc3ccccc3Nc3ccc(Cl)cc32)CC1` [ISOCLOZAPINE]: the Catalyptic action is recorded as 25 with Rattus norvegicus [1]; 0 in the experiment on Rattus norvegicus [11]; 75 in the experiment with Rattus norvegicus [12]; 0 with Rattus norvegicus [15]; 0 in the experiment with Rattus norvegicus [16]. The results for the IC50 (on D(1A) dopamine receptor; in experiment [2]; in experiment [8]) were 11 nM, 6 nM and 64 nM, respectively. Further, the Locomotor activity in the experiment on Rattus norvegicus [3] was 3; in the experiment on Rattus norvegicus [5] it was 3; in the experiment on Rattus norvegicus [13], 65; with Rattus norvegicus [14], 82; with Rattus norvegicus [17] it was 114.
For the compound `COc1ccc2c(c1)C(N1CCN(C)CC1)=Nc1ccccc1N2`, the IC50 is 550 nM at D(1A) dopamine receptor; 39 nM in experiment [2]; 120 nM in experiment [8]; 21 nM in [9]; 12 nM in [10].
`COc1ccc2c(c1)N=C(N1CCN(C)CC1)c1ccccc1N2`: the IC50 against D(1A) dopamine receptor is 7400 nM; in [2], 19 nM; in [8] it was 240 nM; in experiment [9] it was 86 nM.
In the same order, the values of `CN1CCN(C2=Nc3cc(O)ccc3Nc3ccccc32)CC1` are 9800 nM, 27 nM, 1200 nM and 440 nM.
For `CN1CCN(C2=Nc3ccccc3Nc3ccc(O)cc32)CC1`, the IC50 was 550 nM at D(1A) dopamine receptor; 37 nM in experiment [2]; 260 nM in experiment [8]; 81 nM in experiment [9]; 35 nM in experiment [10].
`O=C(CCCN1CCC(O)(c2ccc(Cl)cc2)CC1)c1ccc(F)cc1` [HALOPERIDOL]: the Locomotor activity is recorded as 88 in the experiment on Rattus norvegicus [18], 9 with Rattus norvegicus [19] and 1 in the experiment on Rattus norvegicus [17]. The results for the Catalyptic action in the experiment on Rattus norvegicus [20], with Rattus norvegicus [16] and in the experiment on Rattus norvegicus [21] were 75, 100 and 0, respectively.
In the case of `CN1CCN(C2=Nc3cc(Cl)ccc3Nc3ccccc32)CC1` [CLOZAPINE], the Catalyptic action with Rattus norvegicus [1] and with Rattus norvegicus [6] was 0 in each case. In addition, the values for the Locomotor activity in the experiment with Rattus norvegicus [3] and in the experiment with Rattus norvegicus [7] were 98 and 7, respectively.
